Source: US20110305637A1, “RADIOLABELLED PDE10 LIGANDS” (Janssen Pharmaceutica N.V., priority 2009, published 2011)
Several values for one entry are separate records, joined by “and”; a condition that tells them apart may be missing. Identical values can stand only once.

Assay: Biodistribution study in male Wistar rats
Format: in vivo, rat
Settings: for % ID/g × kg in Blood / % ID/g × kg in Cerebellum / % ID/g × kg in Cerebrum + Cerebellum / % ID/g × kg in Cerebrum total / % ID/g × kg in Cortex / % ID/g × kg in Heart / % ID/g × kg in Hippocampus / % ID/g × kg in Kidneys / % ID/g × kg in Liver / % ID/g × kg in Lungs / % ID/g × kg in Rest of cerebrum / % ID/g × kg in Spleen + Pancreas / % ID/g × kg in Striatum: normalized for body weight
Experimental: (§1) The biodistribution study of [^18F]B-1 was carried out in male Wistar rats (body weight 250-350 g) at 2 min, 30 min and 60 min post injection (p.i.) (n=3/time point). Rats were injected with about 1.1 MBq of the tracer via tail vein under anesthesia (2.5% Isoflurane in O2 at 1 L/min flow rate) and sacrificed by decapitation at above specified time points. Blood and major organs were collected in tared tubes and weighed. The radioactivity in blood, organs and other body parts was measured using an automated gamma counter The distribution of radioactivity in different parts of the body at different time points p.i. of the tracer was calculated and expressed as percentage of injected dose (% ID), and as percentage of injected dose per gram tissue (% ID/g) for the selected organs. % ID is calculated as cpm in organ/total cpm recovered. For calculation of total radioactivity in blood, blood mass was assumed to be 7% of the body mass.
as §1, with “[^18F]B-2” for “[^18F]B-1”, “270-340” for “250-350”

[1] = 60 min p.i., % ID/g values normalized for the body weight

## [18F]CCCn1cc(-c2ccncc2)c(-c2ccc(OCc3ccc4ccccc4n3)cc2)n1 [[^18F]B-1]
30 min p.i.
  % ID/g × kg in Blood: 0.03 ± 0.00 % ID/g × kg
  % ID/g × kg in Cerebellum: 0.023 ± 0.00 % ID/g × kg
  % ID/g × kg in Cerebrum + Cerebellum: 0.03 ± 0.00 % ID/g × kg
  % ID/g × kg in Cerebrum total: 0.032 ± 0.00 % ID/g × kg
  % ID/g × kg in Cortex: 0.027 ± 0.01 % ID/g × kg
  % ID/g × kg in Heart: 0.07 ± 0.00 % ID/g × kg
  % ID/g × kg in Hippocampus: 0.021 ± 0.00 % ID/g × kg
  % ID/g × kg in Kidneys: 0.16 ± 0.01 % ID/g × kg
  % ID/g × kg in Liver: 1.03 ± 0.08 % ID/g × kg
  % ID/g × kg in Lungs: 0.35 ± 0.03 % ID/g × kg
  % ID/g × kg in Rest of cerebrum: 0.030 ± 0.00 % ID/g × kg
  % ID/g × kg in Spleen + Pancreas: 0.07 ± 0.00 % ID/g × kg
  % ID/g × kg in Striatum: 0.106 ± 0.00 % ID/g × kg
60 min p.i.
  % ID in Blood: 1.9 % ID and 1.94 ± 0.1 % ID
  % ID in Carcass: 27.96 ± 0.7 % ID
  % ID in Cerebellum: 0.012 ± 0.00 % ID
  % ID in Cerebrum total: 0.101 ± 0.01 % ID
  % ID in Cortex: 0.012 ± 0.00 % ID
  % ID in Heart: 0.17 ± 0.0 % ID
  % ID in Hippocampus: 0.003 ± 0.00 % ID
  % ID in Intestines: 14.72 ± 4.1 % ID
  % ID in Kidneys: 1.45 ± 0.1 % ID
  % ID in Liver: 41.44 ± 1.5 % ID
  % ID in Lungs: 0.32 ± 0.0 % ID
  % ID in Rest of cerebrum: 0.071 ± 0.01 % ID
  % ID in Spleen + Pancreas: 0.31 ± 0.0 % ID
  % ID in Stomach: 10.00 ± 2.5 % ID
  % ID in Striatum: 0.015 ± 0.00 % ID
  % ID in Urine: 1.87 ± 0.2 % ID
  % ID present in the liver and intestines in total: 56 % ID
  % ID present in the urinary system: ~3.3 % ID
  % ID/g in Blood: 0.08 ± 0.00 % ID/g
  % ID/g in Cerebellum: 0.04 ± 0.00 % ID/g
  % ID/g in Cerebrum + Cerebellum: 0.07 ± 0.00 % ID/g
  % ID/g in Cerebrum total: 0.07 ± 0.00 % ID/g
  % ID/g in Cortex: 0.06 ± 0.00 % ID/g
  % ID/g in Heart: 0.16 ± 0.00 % ID/g
  % ID/g in Hippocampus: 0.05 ± 0.01 % ID/g
  % ID/g in Kidneys: 0.46 ± 0.02 % ID/g
  % ID/g in Liver: 3.11 ± 0.06 % ID/g
  % ID/g in Lungs: 0.20 ± 0.02 % ID/g
  % ID/g in Rest of cerebrum: 0.07 ± 0.00 % ID/g
  % ID/g in Spleen + Pancreas: 0.19 ± 0.01 % ID/g
  % ID/g × kg in Blood: 0.03 ± 0.00 % ID/g × kg
  % ID/g × kg in Cerebellum: 0.015 ± 0.00 % ID/g × kg
  % ID/g × kg in Cerebrum + Cerebellum: 0.02 ± 0.00 % ID/g × kg
  % ID/g × kg in Cerebrum total: 0.024 ± 0.00 % ID/g × kg
  % ID/g × kg in Cortex: 0.019 ± 0.00 % ID/g × kg
  % ID/g × kg in Heart: 0.05 ± 0.00 % ID/g × kg
  % ID/g × kg in Hippocampus: 0.016 ± 0.00 % ID/g × kg
  % ID/g × kg in Kidneys: 0.16 ± 0.01 % ID/g × kg
  % ID/g × kg in Liver: 1.04 ± 0.02 % ID/g × kg
  % ID/g × kg in Lungs: 0.07 ± 0.01 % ID/g × kg
  % ID/g × kg in Rest of cerebrum: 0.022 ± 0.00 % ID/g × kg
  % ID/g × kg in Spleen + Pancreas: 0.06 ± 0.01 % ID/g × kg
  % ID/g × kg in Striatum: 0.083 ± 0.01 % ID/g × kg
[1]
  striatum/blood ratio: 3.0
  striatum/cerebellum ratio: 5.6
  striatum/cortex ratio: 4.4
  striatum/hippocampus ratio: 5.2
Blood
  Clearance, 2 min/30 min ratio for % ID/g values: 1.60
  Clearance, 2 min/60 min ratio for % ID/g values: 2.28
Cerebellum
  Clearance, 2 min/30 min ratio for % ID/g values: 4.37
  Clearance, 2 min/60 min ratio for % ID/g values: 8.8 and 8.81
Cerebrum total
  Clearance, 2 min/30 min ratio for % ID/g values: 2.54
  Clearance, 2 min/60 min ratio for % ID/g values: 4.34
Cortex
  Clearance, 2 min/30 min ratio for % ID/g values: 3.81
  Clearance, 2 min/60 min ratio for % ID/g values: 7.19
Hippocampus
  Clearance, 2 min/30 min ratio for % ID/g values: 2.54
  Clearance, 2 min/60 min ratio for % ID/g values: 4.33
Rest of cerebrum
  Clearance, 2 min/30 min ratio for % ID/g values: 2.54
  Clearance, 2 min/60 min ratio for % ID/g values: 4.53
Striatum
  Clearance, 2 min/30 min ratio for % ID/g values: 0.97
  Clearance, 2 min/60 min ratio for % ID/g values: 1.6 and 1.62
At all time points examined
  % ID present in the carcass: ~26 % ID
